Source: PMC11149339, “Necessity for higher teicoplanin doses in older adults: a multicenter prospective observational study in China” (BMC Geriatrics, 2024)
Read-outs that look alike come from different tables or passages of the source.

Key:
[1] = in vivo, cited from earlier work
Description: There are few studies on the optimal dose regimen and target concentration of teicoplanin in older adults.

[2] = Thrombocytopenia during teicoplanin treatment; type: in vivo, human
Description: Patients with platelet counts < 100 × 10^9/L at baseline were excluded. Thrombocytopenia was defined as a decrease in the platelet count of > 30% from baseline.

[3] = Hepatotoxicity during teicoplanin treatment; type: in vivo, human
Description: Patients with abnormal liver function at baseline were excluded. Hepatotoxicity was defined as an increase in the alanine aminotransferase or aspartate aminotransferase concentration to more than three times the upper limit of the institution’s normal reference ranges.

[4] = Therapeutic drug monitoring of teicoplanin trough concentration (Cmin) during treatment, LC-MS/MS; type: in vivo, human; conditions: for patients with TDM 10–20 mg/L At 8-14d, N (%) / patients with TDM < 10 mg/L At 8-14d, N (%) / patients with TDM > 20 mg/L At 8-14d, N (%) / TDM At 8-14d (teicoplanin trough concentration): 8–14 days after first dose; for TDM At 8-14d (teicoplanin trough concentration) / TDM At 3d (teicoplanin trough concentration): median [IQR], LC-MS/MS; for patients with TDM 10–20 mg/L At 3d, N (%) / patients with TDM < 10 mg/L At 3d, N (%) / patients with TDM > 20 mg/L At 3d, N (%) / TDM At 3d (teicoplanin trough concentration): 3 days after first dose; for target concentration achievement rate (≥ 10 mg/L): TDM8-14d
Experimental: Teicoplanin (Targocid, Sanofi, Dublin, Ireland) was administered intravenously for 30 min. The prescribed dose regimens were at the discretion of treating physicians, and the recommended regimens were not always followed.
Blood samples (5 mL) were collected from the elbow into ethylenediaminetetraacetic acid-containing Vacutainers® (Becton Dickinson, Milan, Italy) in the morning before teicoplanin administration and after drug withdrawal. Samples were promptly refrigerated and centrifuged at 2500 × g for 10 min before 2 mL of supernatant was preserved at -20 °C for subsequent analysis. Teicoplanin concentrations were determined using liquid chromatography-tandem mass spectrometry. The linear range of the method was 1.0–100.0 mg/L, and the lower limit of quantification was 1.0 mg/L. The relative standard deviation of intra- and inter-batch precision was ≤ 10%.
Teicoplanin concentrations were dynamically monitored. Concentrations at 3, ≤ 7, 8–14, and ≥ 15 days after the first dose and within 2 h of the next scheduled dose were recorded as TDM3d, TDM≤7d, TDM8-14d, and TDM≥15d, respectively. Concentrations at 3, ≤ 7, 8–14, and ≥ 15 days after the last teicoplanin dose (withdrawal) were recorded as TDMw3d, TDMw≤7d, TDMw8-14d, and TDMw≥15d. respectively (Fig. 1a). The Cmin target was ≥ 10 mg/L [6, 7, 23]; a concentration < 10 mg/L was considered suboptimal. Average TDM (TDMa) was defined as the mean Cmin after 3 days of treatment.

[5] = LR-A + MR-A (200 mg once daily, then 200 mg once daily)
[6] = LR-B + MR-A (400 mg once daily, then 200 mg once daily)
[7] = LR-B + MR-B (400 mg once daily, then 400 mg once daily)
[8] = LR-C + MR-B (400 mg at 12-h intervals, then 400 mg once daily)
[9] = LR-C + MR-C (400 mg at 12-h intervals, then 400 mg twice daily)

Substance: Teicoplanin
- average elimination half-life ([1]; human): 107 h
- half-life of teicoplanin ([1]; human): 71 to 80 h
- half-life of teicoplanin [1]: 71 to 163 h
- incidence of thrombocytopenia ([2]; TDMa < 10 mg/L (16/49)): 32.7%
- incidence of thrombocytopenia ([2]; TDMa = 10–20 mg/L (12/42)): 28.6%
- incidence of thrombocytopenia ([2]; TDMa = 20–40 mg/L (7/20)): 35.0%
- incidence of thrombocytopenia ([2]; all evaluable patients (35/111), platelet count decrease > 30% from baseline): 31.5%
- incidence of hepatotoxicity ([3]; TDMa < 10 mg/L (2/65)): 3.1%
- incidence of hepatotoxicity ([3]; TDMa = 10–20 mg/L (3/57)): 5.3%
- incidence of hepatotoxicity ([3]; TDMa = 20–40 mg/L (1/26)): 3.8%
- incidence of hepatotoxicity ([3]; all evaluable patients (6/148), ALT or AST more than three times the upper limit of normal): 4.1%
- patients with TDM 10–20 mg/L At 8-14d, N (%) ([4]; LR-A + MR-A): 20(41.7)
- patients with TDM < 10 mg/L At 8-14d, N (%) ([4]; LR-A + MR-A): 22(45.8)
- patients with TDM > 20 mg/L At 8-14d, N (%) ([4]; LR-A + MR-A): 6(12.5)
- TDM At 8-14d (teicoplanin trough concentration) [4, 5]: 10.4[7.3,17.8] mg/L
- patients with TDM 10–20 mg/L At 8-14d, N (%) ([4]; LR-B + MR-A): 25(53.2)
- patients with TDM < 10 mg/L At 8-14d, N (%) ([4]; LR-B + MR-A): 16(34.0)
- patients with TDM > 20 mg/L At 8-14d, N (%) ([4]; LR-B + MR-A): 6(12.8)
- TDM At 8-14d (teicoplanin trough concentration) [4, 6]: 11.0[7.3,15.4] mg/L
- patients with TDM 10–20 mg/L At 8-14d, N (%) ([4]; LR-B + MR-B): 2(50.0)
- patients with TDM < 10 mg/L At 8-14d, N (%) ([4]; LR-B + MR-B): 1(25.0)
- patients with TDM > 20 mg/L At 8-14d, N (%) ([4]; LR-B + MR-B): 1(25.0)
- TDM At 8-14d (teicoplanin trough concentration) [4, 7]: 12.8[9.0,21.5] mg/L
- patients with TDM 10–20 mg/L At 8-14d, N (%) ([4]; LR-C + MR-B): 8(57.2)
- patients with TDM < 10 mg/L At 8-14d, N (%) ([4]; LR-C + MR-B): 5(35.7)
- patients with TDM > 20 mg/L At 8-14d, N (%) ([4]; LR-C + MR-B): 1(7.1)
- TDM At 8-14d (teicoplanin trough concentration) [4, 8]: 14.16[8.9,16.4] mg/L
- patients with TDM 10–20 mg/L At 8-14d, N (%) ([4]; LR-C + MR-C): 3(37.5)
- patients with TDM < 10 mg/L At 8-14d, N (%) ([4]; LR-C + MR-C): 0
- patients with TDM > 20 mg/L At 8-14d, N (%) ([4]; LR-C + MR-C): 5(62.5)
- TDM At 8-14d (teicoplanin trough concentration) [4, 9]: 21.2[16.8,27.4] mg/L
- TDM At 8-14d (teicoplanin trough concentration) ([4]; all patients (N = 204), iv): 11.1[8.5,17.6] mg/L
- patients with TDM 10–20 mg/L At 3d, N (%) ([4]; LR-A + MR-A): 0
- patients with TDM < 10 mg/L At 3d, N (%) ([4]; LR-A + MR-A): 16(100)
- patients with TDM > 20 mg/L At 3d, N (%) ([4]; LR-A + MR-A): 0
- TDM At 3d (teicoplanin trough concentration) [4, 5]: 5.4[3.0,7.7] mg/L
- patients with TDM 10–20 mg/L At 3d, N (%) ([4]; LR-B + MR-A): 2(10.5)
- patients with TDM < 10 mg/L At 3d, N (%) ([4]; LR-B + MR-A): 17(89.5)
- patients with TDM > 20 mg/L At 3d, N (%) ([4]; LR-B + MR-A): 0
- TDM At 3d (teicoplanin trough concentration) [4, 6]: 6.3[4.4,7.9] mg/L
- patients with TDM 10–20 mg/L At 3d, N (%) ([4]; LR-B + MR-B): 1(16.7)
- patients with TDM < 10 mg/L At 3d, N (%) ([4]; LR-B + MR-B): 3(50.0)
- patients with TDM > 20 mg/L At 3d, N (%) ([4]; LR-B + MR-B): 2(33.3)
- TDM At 3d (teicoplanin trough concentration) [4, 7]: 11.1[8.1,22.2] mg/L
- patients with TDM 10–20 mg/L At 3d, N (%) ([4]; LR-C + MR-B): 5(62.5)
- patients with TDM < 10 mg/L At 3d, N (%) ([4]; LR-C + MR-B): 3(37.5)
- patients with TDM > 20 mg/L At 3d, N (%) ([4]; LR-C + MR-B): 0
- TDM At 3d (teicoplanin trough concentration) [4, 8]: 11.0[7.0,13.3] mg/L
- patients with TDM 10–20 mg/L At 3d, N (%) ([4]; LR-C + MR-C): 7(50.0)
- patients with TDM < 10 mg/L At 3d, N (%) ([4]; LR-C + MR-C): 3(21.4)
- patients with TDM > 20 mg/L At 3d, N (%) ([4]; LR-C + MR-C): 4(28.6)
- TDM At 3d (teicoplanin trough concentration) [4, 9]: 14.4[10.7,21.1] mg/L
- TDM At 3d (teicoplanin trough concentration) ([4]; all patients (N = 204), iv): 7.7[5.6,12.4] mg/L
- target concentration achievement rate (≥ 10 mg/L) ([4]; LR-A + MR-A regimen): 54.2%
- target concentration achievement rate (≥ 10 mg/L) ([4]; LR-B + MR-A regimen): 66.0%
- target concentration achievement rate (≥ 10 mg/L) ([4]; LR-B + MR-B regimen): 75.0%
